What is called Kd is the concentration at which binding is half-saturated.

This is an account of results in US20220047711A1, “PHOTOCROSSLINKING PEPTIDES FOR SITE SPECIFIC CONJUGATION TO FC-CONTAINING PROTEINS” (Genentech, Inc., priority 2018, published 2022).

Assay [1] deals with T1, Trastuzumab (TMab) (Homo sapiens, UniProt P01857, D239E/L241M).
T1 construct: Genentech (HERCEPTIN)
Kind of assay: SPR binding of peptides to immobilized Trastuzumab. The following applies: for Kd: TMab, FIG. 3C; for reduced binding affinity (Kd fold decreased) compared to the Fc-III peptide: relative to Fc-III. On the procedure:
Example 2: SPR binding experiments. Kinetics of peptide binding to Trastuzumab were measured by surface plasmon resonance (SPR) on a Biacore 3000 instrument (GE Healthcare) using a previously established method. (Gong, Y.; et al., Development of the Double Cyclic Peptide Ligand for Antibody Purification and Protein Detection. Bioconjugate chemistry 2016). An amine coupling kit (GE Healthcare) was used to immobilize Trastuzumab to the surface of a CM5 Sensor Chip (GE Healthcare). All injections were double-referenced with real-time reference channel subtraction and buffer blank injections. Data were analyzed using the BiaEvaluation software (version 4.1, GE Healthcare).
For orientation: Surface plasmon resonance follows binding to a sensor surface in real time, without labels.

Assay [2] deals with T1, Trastuzumab (TMab). Kind of assay: Photoconjugation (UV 365 nm) of peptide to Trastuzumab, DAR by LC-MS. The method, then:
(§1) Example 2: Antibody conjugation. Conjugation reactions for photocrosslinking peptides were performed open and uncovered in V-bottom, clear, polystyrene 96-well plates (ThermoFisher, product #2605) with a final reaction volume of 50 μL. Unused wells were filled with 150 μL of deionized water. Optimized reactions were performed in 20 mM histidine acetate buffer, pH=5.5, with a final concentration of 48 μM antibody, 480 μM photo-crosslinking peptide, 480 μM 5-hydroxyindole ([…], Sigma-Aldrich), with 11% (v/v) DMSO. […] The DAR was assessed by LC-MS analysis of Fc/2 or heavy chain fragments generated by IdeS or DTT treatments of Trastuzumab, respectively.

The subject of a further assay is Rituximab (human IgG1). Kind of assay: Photoconjugation of peptide to Rituximab, DAR.
For another assay, the target named is human IgG4 antibody (A) (Homo sapiens, UniProt P01861). The assay is described as follows: Photoconjugation of peptide to human IgG4 antibody A, DAR. On the procedure: as §1
For assay [3], the target named is human IgG4 "YTE" mutant (B) (Homo sapiens, UniProt P01861, M132Y/S134T/T136E). Kind of assay: Photoconjugation of peptide to human IgG4 YTE mutant antibody B, DAR. Particulars: Human IgG4 YTE mutant (no Met-252). The method, then:
as §1

In a further assay the target is rabbit IgG (C) (Oryctolagus cuniculus, UniProt P01870). Kind of assay: Photoconjugation of peptide to rabbit IgG antibody C, DAR. The method, then:
as §1

For a further assay, the target named is mouse IgG1 antibody (D) (Mus musculus, UniProt P01868). Kind of assay: Photoconjugation of peptide to mouse IgG1 antibody D, DAR. The following applies: Mouse IgG1 (no Met-252). On the procedure: as §1
Assay [4] addresses T1, Trastuzumab (TMab). The assay is described as follows: Photoconjugation (UV 365 nm) of peptide to Trastuzumab, DAR by LC-MS. Particulars: PBS, micro-centrifuge tubes on ice, hand-held 365 nm lamp, one hour.
The target in another assay is human IgG. The following applies: previously reported, Gong et al. 2016; cited from earlier work.
The mark [5] stands for this setting: 96-well plate directly under 365 nm lamp, room temperature, 4.5 hours.

Several values for one entry are separate records, joined by “and”; a condition that tells them apart may be missing. Equal values may be shown once.

As to `CC(=O)N[C@@H](CC(=O)O)C(=O)N[C@H]1CSSC[C@@H](C(=O)N[C@H](C(N)=O)[C@@H](C)O)NC(=O)[C@H](Cc2c[nH]c3ccccc23)NC(=O)[C@H](C(C)C)NC(=O)[C@H](CC(C)C)NC(=O)[C@H](CCC(=O)O)NC(=O)CNC(=O)[C@H](Cc2ccc(C(=O)c3ccccc3)cc2)NC(=O)[C@H](Cc2c[nH]cn2)NC(=O)[C@H](Cc2c[nH]c3ccccc23)NC(=O)[C@H](C)NC1=O` [BPA4, Ac-DCAWHBGELVWCT-NH2], at Trastuzumab (TMab) [1], the Kd is around 30 µM and the “reduced binding affinity (Kd fold decreased) compared to the Fc-III peptide” value was “greater than 1700 fold”. This compound also yielded a DAR on Trastuzumab (TMab) [2] (setting [5]) of 1.2.

For the compound `CC(=O)N[C@@H](CC(=O)O)C(=O)N[C@H]1CSSC[C@@H](C(=O)N[C@H](C(N)=O)[C@@H](C)O)NC(=O)[C@H](Cc2c[nH]c3ccccc23)NC(=O)[C@H](Cc2ccc(C(=O)c3ccccc3)cc2)NC(=O)[C@H](CC(C)C)NC(=O)[C@H](CCC(=O)O)NC(=O)CNC(=O)[C@H](CC(C)C)NC(=O)[C@H](Cc2c[nH]cn2)NC(=O)[C@H](Cc2c[nH]c3ccccc23)NC(=O)[C@H](C)NC1=O` [BPA7, Ac-DCAWHLGELBWCT-NH2], the Kd at Trastuzumab (TMab) [1] was ~70 µM and 70 µM. Moreover, the “bound to TMab less tightly than BPA9” value on Trastuzumab (TMab) [1] (relative to BPA9) is around 150 fold. The “reduced binding affinity (Kd fold decreased) compared to the Fc-III peptide” value at Trastuzumab (TMab) [1] is listed as “greater than 4000 fold”. The DAR was around 1.7 at Trastuzumab (TMab) [2] (setting [5]); 1.5 at Trastuzumab (TMab) [2] (Row B: 267 μM BPA7, PBS, on ice (~4° C.), 4 hours); 1.8 at Trastuzumab (TMab) [2] (Row C: 267 μM BPA7, histidine-acetate pH 5.5, on ice, 4 hours); 1.4 at Trastuzumab (TMab) [2] (Row D: 267 μM BPA7, PBS, 267 μM 5-hydroxyindole, on ice, 4 hours); 1.9 on Trastuzumab (TMab) [2] (Row E: 480 μM BPA7 (10-fold over antibody), histidine-acetate pH 5.5, 5-hydroxyindole, 6 hours, on ice); 1.8 at Trastuzumab (TMab) [2] (irradiation chamber, Row A: 267 μM BPA7, PBS, room temperature, 4 hours). The “DAR (photoconjugation efficiency)” value on Trastuzumab (TMab) [2] (FIG. 3C, peptide series comparison) is on record as 1.9. In addition, the “DAR reached upon photoconjugation to BPA7” value on Trastuzumab (TMab) [2] (Trastuzumab, Human IgG1) was 2.0; in the assay with Rituximab (human IgG1), 2.0; at human IgG4 antibody (A) it was 2.0; in [3] it was 0.0; at rabbit IgG (C) it was 1.2; on mouse IgG1 antibody (D), 0. At Trastuzumab (TMab) [4], the “drug-to-antibody ratio (DAR)” value is on record as around 0.04.

With `CC(=O)N[C@@H](CC(=O)O)C(=O)N[C@H]1CSSC[C@@H](C(=O)N[C@H](C(N)=O)[C@@H](C)O)NC(=O)[C@H](Cc2c[nH]c3ccccc23)NC(=O)[C@H](C(C)C)NC(=O)[C@H](CC(C)C)NC(=O)[C@H](CCC(=O)O)NC(=O)CNC(=O)[C@H](CC(C)C)NC(=O)[C@H](Cc2c[nH]cn2)NC(=O)[C@H](Cc2c[nH]c3ccccc23)NC(=O)[C@H](C)NC1=O` [Fc-III], the Kd on human IgG was 0.07 µM.

In the case of “Ac-DCAWBLGELVWCT-NH2 (DCAWXLGELVWCT; Ac, NH2; BPA non-natural residue; /note=“N-term Ac”; MOD_RES (5)..(5) p-benzoyl-L-phenylalanine; /note=“C-term NH2”) [BPA3, B = BPA]”, the DAR with Trastuzumab (TMab) [2] (setting [5]) was determined as 0.2.
